Target: Ov-CF-1 (cathepsin F) (Opisthorchis viverrini, UniProt Q5PXS3)
Test: fluorogenic release of NHMec
Assay type: biochemical
Conditions: autoactivation at pH 4.5, 37 °C, 1 mM DTT, 1 mM EDTA

## Cc1cc(=O)oc2cc(NC(=O)[C@H](CCCNC(=N)N)NC(=O)[C@H](CC(C)C)NC(=O)OCc3ccccc3)ccc12 [Z-Leu-Arg-NHMec]
  fluorogenic release of NHMec (ex 380 / em 460 nm): The rate of hydrolysis of Z-Leu-Arg-NHMec

From publication PMC2888773 (Cellular microbiology, 2010)
